Data: patent US9328106B2, “Cyclic ether pyrazol-4-yl-heterocyclyl-carboxamide compounds and methods of use” (Genentech, Inc., priority 2012, dated 2016)

target: PIM1 (Homo sapiens (Human), UniProt P11309); assay: biochemical; type: biochemical; conditions: 20 pM PIM1, 1 μM FAM-peptide, 10 μM ATP, 90 minutes at room temperature; read-out: PIM1 LC3K (KI)
Sequence (P11309 whole entry): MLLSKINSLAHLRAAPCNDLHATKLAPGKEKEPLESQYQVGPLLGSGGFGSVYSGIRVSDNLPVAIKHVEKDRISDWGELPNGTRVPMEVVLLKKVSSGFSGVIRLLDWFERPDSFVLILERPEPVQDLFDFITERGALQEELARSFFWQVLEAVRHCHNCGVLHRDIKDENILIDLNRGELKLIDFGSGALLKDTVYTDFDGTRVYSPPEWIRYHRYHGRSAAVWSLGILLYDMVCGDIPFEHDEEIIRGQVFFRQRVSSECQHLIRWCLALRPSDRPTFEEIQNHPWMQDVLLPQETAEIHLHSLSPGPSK

Compound	Ki [nM]
Cn1ncc(NC(=O)c2nc(-c3c(F)cccc3F)sc2N)c1C1CC(F)(F)CC(N)CO1 (single isomer, unassigned) [Example 114, 5-amino-N-[5-(6-amino-4,4-difluoro-oxepan-2-yl)-1-methyl-pyrazol-4-yl]-2-(2,6-difluorophenyl)thiazole-4-carboxamide]	0.032
Cn1ncc(NC(=O)c2nc(-c3c(F)cccc3F)sc2N)c1C1=CCOCC1 [Example 101, 5-amino-2-(2,6-difluorophenyl)-N-[5-(3,6-dihydro-2H-pyran-4-yl)-1-methyl-pyrazol-4-yl]thiazole-4-carboxamide]	0.485
Cn1ncc(NC(=O)c2nc(-c3c(F)cccc3F)sc2N)c1C1=CCCCO1 [Example 102, 5-amino-2-(2,6-difluorophenyl)-N-[5-(3,4-dihydro-2H-pyran-6-yl)-1-methyl-pyrazol-4-yl]thiazole-4-carboxamide]	0.408
COC1(c2c(NC(=O)c3nc(-c4c(F)cccc4F)sc3N)cnn2C)CCCCO1 (stereo not shown) [Example 103, 5-amino-2-(2,6-difluorophenyl)-N-[5-(2-methoxytetrahydropyran-2-yl)-1-methyl-pyrazol-4-yl]thiazole-4-carboxamide]	0.209
Cn1ncc(NC(=O)c2nc(-c3c(F)cccc3F)sc2N)c1C1CCCCO1 (stereo not shown) [Example 104, 5-amino-2-(2,6-difluorophenyl)-N-(1-methyl-5-tetrahydropyran-2-yl-pyrazol-4-yl)thiazole-4-carboxamide]	0.424
COC1(c2c(NC(=O)c3nc(-c4ncccc4F)sc3N)cnn2C)CCCCO1 (stereo not shown) [Example 105, 5-amino-2-(3-fluoro-2-pyridyl)-N-[5-(2-methoxytetrahydropyran-2-yl)-1-methyl-pyrazol-4-yl]thiazole-4-carboxamide]	0.118
Cn1ncc(NC(=O)c2nc(-c3c(F)cccc3F)sc2N)c1[C@]12CC[C@H](O1)[C@@H](O)CC2 [Example 106, 5-amino-2-(2,6-difluorophenyl)-N-(5-((1S,4S,5S)-4-hydroxy-8-oxabicyclo[3.2.1]octan-1-yl)-1-methyl-1H-pyrazol-4-yl)thiazole-4-carboxamide]	0.032
C[C@@H]1CC(O)CC[C@H](c2c(NC(=O)c3nc(-c4c(F)cccc4F)sc3N)cnn2C)O1 (stereo partly drawn) [Example 108, 5-amino-2-(2,6-difluorophenyl)-N-(5-((2R,7R)-5-hydroxy-7-methyloxepan-2-yl)-1-methyl-1H-pyrazol-4-yl)thiazole-4-carboxamide]	0.049
Cn1ncc(NC(=O)c2nc(-c3c(F)cccc3F)sc2N)c1C1CC[C@@H](O)[C@@H](O)CO1 (stereo partly drawn) [Example 111, 5-amino-2-(2,6-difluorophenyl)-N-(5-((5R,6S)-5,6-dihydroxyoxepan-2-yl)-1-methyl-1H-pyrazol-4-yl)thiazole-4-carboxamide]	0.425
C[C@@H]1CC(N)CC[C@H](c2c(NC(=O)c3nc(-c4c(F)cccc4F)sc3N)cnn2C)O1 (stereo partly drawn) [Example 113, 5-amino-N-(5-((2R,7R)-5-amino-7-methyloxepan-2-yl)-1-methyl-1H-pyrazol-4-yl)-2-(2,6-difluorophenyl)thiazole-4-carboxamide]	0.019
Cn1ncc(NC(=O)c2nc(-c3c(F)cccc3F)sc2N)c1C1CC[C@@H](N)[C@@H](F)CO1 (stereo partly drawn) [Example 119, 5-amino-N-(5-((5R,6R)-5-amino-6-fluorooxepan-2-yl)-1-methyl-1H-pyrazol-4-yl)-2-(2,6-difluorophenyl)thiazole-4-carboxamide]	0.021
C[C@@H]1C[C@H](N)CC[C@H](c2c(NC(=O)c3nc(-c4c(F)cccc4F)sc3N)cnn2C)O1 [Example 120, 5-amino-N-(5-((2R,5R,7R)-5-amino-7-methyloxepan-2-yl)-1-methyl-1H-pyrazol-4-yl)-2-(2,6-difluorophenyl)thiazole-4-carboxamide]	0.081
Cn1ncc(NC(=O)c2nc(-c3c(F)cccc3F)sc2N)c1C1CC(F)(F)CC(N)CO1 (stereo not shown) [Example 122, 5-amino-N-[5-(6-amino-4,4-difluoro-oxepan-2-yl)-1-methyl-pyrazol-4-yl]-2-(2,6-difluorophenyl)thiazole-4-carboxamide]	0.014
CO[C@H]1CCC(c2c(NC(=O)c3nc(-c4c(F)cccc4F)sc3N)cnn2C)OC[C@@H]1N (stereo partly drawn) [Example 123, 5-amino-N-(5-((5S,6S)-6-amino-5-methoxyoxepan-2-yl)-1-methyl-1H-pyrazol-4-yl)-2-(2,6-difluorophenyl)thiazole-4-carboxamide]	0.125
Cn1ncc(NC(=O)c2nc(-c3c(F)cccc3F)sc2N)c1C1CCC(N)C(F)CO1 (stereo not shown) [Example 124, 5-amino-N-[5-(5-amino-6-fluoro-oxepan-2-yl)-1-methyl-pyrazol-4-yl]-2-(2,6-difluorophenyl)thiazole-4-carboxamide]	0.015
CC[C@@H]1C[C@H](N)CC[C@H](c2c(NC(=O)c3nc(-c4c(F)cccc4F)sc3N)cnn2C)O1 [Example 125, 5-amino-N-(5-((2R,7R)-5-amino-7-ethyloxepan-2-yl)-1-methyl-1H-pyrazol-4-yl)-2-(2,6-difluorophenyl)thiazole-4-carboxamide]	3.5
Cn1ncc(NC(=O)c2nc(-c3c(F)cccc3F)sc2N)c1C1C[C@@H](N)[C@H](F)CCO1 (stereo partly drawn) [Example 127, 5-amino-N-(5-((4R,5R)-4-amino-5-fluorooxepan-2-yl)-1-methyl-1H-pyrazol-4-yl)-2-(2,6-difluorophenyl)thiazole-4-carboxamide]	0.112
CO[C@H]1COC(c2c(NC(=O)c3nc(-c4c(F)cccc4F)sc3N)cnn2C)CC[C@@H]1N (stereo partly drawn) [Example 128, 5-amino-N-(5-((5S,6R)-5-amino-6-methoxyoxepan-2-yl)-1-methyl-1H-pyrazol-4-yl)-2-(2,6-difluorophenyl)thiazole-4-carboxamide]	0.476
Cn1ncc(NC(=O)c2nc(-c3c(F)cccc3F)sc2N)c1C1C[C@H](N)[C@@H](F)CCO1 (stereo partly drawn) [Example 130, 5-amino-N-(5-((4S,5S)-4-amino-5-fluorooxepan-2-yl)-1-methyl-1H-pyrazol-4-yl)-2-(2,6-difluorophenyl)thiazole-4-carboxamide]	0.358
Cn1ncc(NC(=O)c2nc(-c3c(F)cccc3F)sc2N)c1C1CC(F)(F)CC(N)CO1 (stereo not shown) [Example 132, 5-amino-N-[5-(6-amino-4,4-difluoro-oxepan-2-yl)-1-methyl-pyrazol-4-yl]-2-(2,6-difluorophenyl)thiazole-4-carboxamide]	0.014
Cn1ncc(NC(=O)c2nc(-c3c(F)cccc3F)sc2N)c1C1CC(F)(F)CC(N)CO1 (stereo not shown) [Example 133, 5-amino-N-[5-(6-amino-4,4-difluoro-oxepan-2-yl)-1-methyl-pyrazol-4-yl]-2-(2,6-difluorophenyl)thiazole-4-carboxamide]	0.076

Results, then the molecule that gave them:

Ki [nM]	Compound
0.01	Cn1ncc(NC(=O)c2nc(-c3c(F)cccc3F)sc2N)c1[C@@H]1C[C@@H](F)[C@H](N)CCO1 (stereo in doubt) [Example 135, 5-amino-N-[5-(5-amino-4-fluoro-oxepan-2-yl)-1-methyl-pyrazol-4-yl]-2-(2,6-difluorophenyl)thiazole-4-carboxamide]
0.351	Cn1ncc(NC(=O)c2nc(-c3c(F)cccc3F)sc2N)c1[C@H]1CCC(F)[C@@H](N)CO1 (stereo in doubt) [Example 145, 5-Amino-N-[5-[6-amino-5-fluoro-oxepan-2-yl]-1-methyl-pyrazol-4-yl]-2-(2,6-difluorophenyl)thiazole-4-carboxamide]
0.104	Cn1ncc(NC(=O)c2nc(-c3c(F)cccc3F)sc2N)c1[C@@H]1CC[C@@H](CN)O1 (stereo in doubt) [Example 155, 5-Amino-N-[5-[5-(aminomethyl)tetrahydrofuran-2-yl]-1-methyl-pyrazol-4-yl]-2-(2,6-difluorophenyl)thiazole-4-carboxamide]
0.032	Cn1ncc(NC(=O)c2nc(-c3c(F)cccc3F)sc2N)c1[C@H]1C[C@@H](N)CCO1 (stereo in doubt) [Example 158, 5-Amino-N-[5-[4-aminotetrahydropyran-2-yl]-1-methyl-pyrazol-4-yl]-2-(2,6-difluorophenyl)thiazole-4-carboxamide]
0.013	Cn1ncc(NC(=O)c2nc(-c3ccncc3F)sc2N)c1[C@@]12CC[C@@H](N)[C@@H](CC1)O2 (stereo in doubt) [Example 161, 5-Amino-N-[5-[2-amino-8-oxabicyclo[3.2.1]octan-5-yl]-1-methyl-pyrazol-4-yl]-2-(3-fluoro-4-pyridyl)thiazole-4-carboxamide]
0.126	Cn1ncc(NC(=O)c2nc(-c3c(F)cccc3F)sc2N)c1[C@@H]1C[C@@H](N)[C@@H](F)CCO1 (stereo in doubt) [Example 170, 5-Amino-N-[5-[4-amino-5-fluoro-oxepan-2-yl]-1-methyl-pyrazol-4-yl]-2-(2,6-difluorophenyl)thiazole-4-carboxamide]
0.456	C[C@H]1O[C@@H](c2c(NC(=O)c3nc(-c4c(F)cccc4F)sc3N)cnn2C)CC(F)(F)[C@@]1(C)N (stereo in doubt) [Example 179, 5-Amino-N-[5-[5-amino-4,4-difluoro-5,6-dimethyl-tetrahydropyran-2-yl]-1-methyl-pyrazol-4-yl]-2-(2,6-difluorophenyl)thiazole-4-carboxamide]
0.054	Cn1ncc(NC(=O)c2nc(-c3c(F)cccc3F)sc2N)c1C1CCC(O)CCO1 (stereo not shown) [Example 134, 5-amino-2-(2,6-difluorophenyl)-N-[5-(5-hydroxyoxepan-2-yl)-1-methyl-pyrazol-4-yl]thiazole-4-carboxamide]
0.057	CO[C@@H]1C[C@@H](c2c(NC(=O)c3nc(-c4c(F)cccc4F)sc3N)cnn2C)OCC[C@H]1N [Example 136, 5-amino-N-(5-((2S,4R,5R)-5-amino-4-methoxyoxepan-2-yl)-1-methyl-1H-pyrazol-4-yl)-2-(2,6-difluorophenyl)thiazole-4-carboxamide]
0.099	Cn1ncc(NC(=O)c2nc(-c3c(F)cccc3F)sc2N)c1[C@H]1C[C@H](F)[C@@H](N)CCO1 [Example 137, 5-amino-N-(5-((2R,4S,5S)-5-amino-4-fluorooxepan-2-yl)-1-methyl-1H-pyrazol-4-yl)-2-(2,6-difluorophenyl)thiazole-4-carboxamide]
